According to PubChem BioAssay (NCI):
Values joined by “and” are separate entries in the source; they are usually repeats but may differ in a detail not shown here. Equal entries are not always repeated.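 96-well plates; 48 h exposure; 5 concentrations. Endpoints by linear interpolation between flanking doses. Not reached: highest tested concentration assigned. GI50 is the concentration that inhibits growth by half. TGI is the concentration that stops growth completely.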

Columns and labels:
Experiment in all cases: NCI tumour cell line growth inhibition, 48 h
EKVX NSCLC = system: EKVX NSCLC
OVCAR-4 ovarian = system: OVCAR-4 ovarian
SF-295 CNS = system: SF-295 CNS
COLO 205 colon = system: COLO 205 colon
K-562 leukemia = system: K-562 leukemia
NCI-H23 lung = system: NCI-H23 lung
DMS 273 small cell lung = system: DMS 273 small cell lung
MALME-3M melanoma = system: MALME-3M melanoma
HOP-18 NSCLC = system: HOP-18 NSCLC
MOLT-4 leukemia = system: MOLT-4 leukemia

Structure (SMILES): O=S1(=O)c2ccccc2N=C(c2ccccc2Cl)CC1c1ccc(F)cc1 (stereo unspecified)
- TGI (EKVX NSCLC): 36.2 µM
- TGI (OVCAR-4 ovarian): 32.8 µM
- TGI (SF-295 CNS): 34.4 µM
- TGI (COLO 205 colon): 40.3 µM
- TGI (K-562 leukemia): 34.6 µM
- TGI (NCI-H23 lung): 32.2 µM
- TGI (DMS 273 small cell lung): 45.3 µM
- TGI (MALME-3M melanoma): 36.8 µM
- TGI (HOP-18 NSCLC): 29.3 µM
- TGI (MOLT-4 leukemia): 51.7 µM

Structure (SMILES): CCCCCCCCCCCCCCCCCC(=O)NCC(COP(=O)(O)O)OCC (stereo unspecified)
- TGI (EKVX NSCLC): > 100 µM
- TGI (OVCAR-4 ovarian): > 100 µM
- TGI (SF-295 CNS): 37.5 µM
- TGI (COLO 205 colon): > 100 µM
- TGI (K-562 leukemia): > 100 µM
- TGI (NCI-H23 lung): 30.1 µM
- TGI (DMS 273 small cell lung): > 100 µM
- TGI (MALME-3M melanoma): > 100 µM
- TGI (MOLT-4 leukemia): > 100 µM

Structure (SMILES): COc1ccc2c(c1)c1c3n2CCNN=C3CCC1
- TGI (EKVX NSCLC): > 100 µM
- TGI (OVCAR-4 ovarian): > 100 µM
- TGI (SF-295 CNS): > 100 µM
- TGI (COLO 205 colon): > 100 µM
- TGI (K-562 leukemia): > 100 µM
- TGI (NCI-H23 lung): > 100 µM
- TGI (DMS 273 small cell lung): > 100 µM
- TGI (MALME-3M melanoma): > 100 µM
- TGI (HOP-18 NSCLC): > 100 µM
- TGI (MOLT-4 leukemia): > 100 µM

Structure (SMILES): c1ccc(-c2ccnc3c2ccc2c(-c4ccccc4)ccnc23)cc1
- TGI (EKVX NSCLC): 5.53 µM
- TGI (OVCAR-4 ovarian): 12.7 µM
- TGI (COLO 205 colon): 6.71 µM
- TGI (K-562 leukemia): 11.4 µM
- TGI (NCI-H23 lung): 14.1 µM
- TGI (DMS 273 small cell lung): 9.5 µM
- TGI (MALME-3M melanoma): 13.5 µM
- TGI (HOP-18 NSCLC): 11.4 µM
- TGI (MOLT-4 leukemia): 2.93 µM

Structure (SMILES): Cc1noc(/N=C2\C=C(Nc3onc(C)c3C)C(=O)c3ccccc32)c1C
- TGI (EKVX NSCLC): > 100 µM
- TGI (OVCAR-4 ovarian): > 100 µM
- TGI (SF-295 CNS): > 100 µM
- TGI (COLO 205 colon): > 100 µM
- TGI (K-562 leukemia): > 100 µM
- TGI (NCI-H23 lung): > 100 µM
- TGI (DMS 273 small cell lung): > 100 µM
- TGI (MALME-3M melanoma): > 100 µM
- TGI (HOP-18 NSCLC): > 100 µM
- TGI (MOLT-4 leukemia): > 100 µM

Structure (SMILES): COC(=O)C(=O)C(C(=O)C(=O)Nc1cc(Cl)c(Cl)cc1Cl)c1nc2ccc([N+](=O)[O-])cc2[nH]c1=O (stereo unspecified)
- TGI (EKVX NSCLC): > 100 µM
- TGI (OVCAR-4 ovarian): > 100 µM
- TGI (SF-295 CNS): > 100 µM
- TGI (COLO 205 colon): > 100 µM
- TGI (K-562 leukemia): > 100 µM
- TGI (NCI-H23 lung): > 100 µM
- TGI (DMS 273 small cell lung): > 100 µM
- TGI (MALME-3M melanoma): > 100 µM
- TGI (HOP-18 NSCLC): 95.2 µM
- TGI (MOLT-4 leukemia): > 100 µM

Structure (SMILES): COC(=O)/C(=N\Nc1nnc(C)n1N)C(C#N)c1ccccc1 (stereo unspecified)
- TGI (EKVX NSCLC): > 100 µM
- TGI (OVCAR-4 ovarian): > 67.4 µM
- TGI (SF-295 CNS): > 100 µM
- TGI (COLO 205 colon): > 100 µM
- TGI (K-562 leukemia): > 100 µM
- TGI (NCI-H23 lung): > 56.1 µM
- TGI (DMS 273 small cell lung): > 100 µM
- TGI (MALME-3M melanoma): 46.5 µM
- TGI (HOP-18 NSCLC): > 100 µM
- TGI (MOLT-4 leukemia): > 100 µM

Structure (SMILES): COC(=O)C(C(=O)C(N)=O)c1csc(-n2nc(-c3ccccc3)cc2-c2ccccc2)n1 (stereo unspecified)
- TGI (EKVX NSCLC): > 31.6 µM
- TGI (OVCAR-4 ovarian): > 31.6 µM
- TGI (SF-295 CNS): > 100 µM
- TGI (COLO 205 colon): > 31.6 µM
- TGI (K-562 leukemia): > 31.6 µM
- TGI (NCI-H23 lung): > 100 µM
- TGI (DMS 273 small cell lung): > 31.6 µM
- TGI (MALME-3M melanoma): > 31.6 µM
- TGI (HOP-18 NSCLC): > 31.6 µM
- TGI (MOLT-4 leukemia): > 31.6 µM

Structure (SMILES): C#CCOCn1cnc2ncnc(N)c21
- TGI (EKVX NSCLC): > 100 µM
- TGI (OVCAR-4 ovarian): > 100 µM
- TGI (SF-295 CNS): > 100 µM
- TGI (COLO 205 colon): > 100 µM
- TGI (K-562 leukemia): > 100 µM
- TGI (NCI-H23 lung): > 100 µM
- TGI (DMS 273 small cell lung): > 100 µM
- TGI (MALME-3M melanoma): > 100 µM
- TGI (HOP-18 NSCLC): > 100 µM
- TGI (MOLT-4 leukemia): > 100 µM

Structure (SMILES): C/C(CC(=O)Nc1cccc([N+](=O)[O-])c1)=N\NC(=O)CC#N
- TGI (EKVX NSCLC): > 100 µM
- TGI (SF-295 CNS): > 100 µM
- TGI (COLO 205 colon): > 100 µM
- TGI (K-562 leukemia): > 100 µM
- TGI (NCI-H23 lung): > 100 µM
- TGI (DMS 273 small cell lung): > 100 µM
- TGI (MALME-3M melanoma): > 100 µM
- TGI (MOLT-4 leukemia): > 100 µM

Structure (SMILES): CC(=O)OC(=O)O/C=C\CCl
- TGI (OVCAR-4 ovarian): > 100 µM
- TGI (COLO 205 colon): > 100 µM
- TGI (K-562 leukemia): > 100 µM
- TGI (DMS 273 small cell lung): > 100 µM
- TGI (MALME-3M melanoma): > 100 µM
- TGI (HOP-18 NSCLC): > 100 µM
- TGI (MOLT-4 leukemia): > 100 µM

Structure (SMILES): Cc1c(Cl)cccc1NC(=O)c1sc2nc3c(cc2c1N)CCCC3
- GI50 (EKVX NSCLC): 0.64 µM
- TGI (EKVX NSCLC): > 100 µM
- GI50 (OVCAR-4 ovarian): 0.827 µM
- TGI (OVCAR-4 ovarian): > 100 µM
- GI50 (SF-295 CNS): 0.346 µM
- TGI (SF-295 CNS): > 100 µM
- GI50 (COLO 205 colon): 0.719 µM
- TGI (COLO 205 colon): > 100 µM
- GI50 (K-562 leukemia): 0.391 µM
- TGI (K-562 leukemia): > 100 µM
- GI50 (NCI-H23 lung): 9.15 µM
- TGI (NCI-H23 lung): > 100 µM
- GI50 (MALME-3M melanoma): 0.571 µM
- TGI (MALME-3M melanoma): > 100 µM
- GI50 (MOLT-4 leukemia): 0.481 µM
- TGI (MOLT-4 leukemia): > 100 µM

Structure (SMILES): Cc1c2ccncc2c(C)c2c1[nH]c1ccc(Cl)cc12
- GI50 (EKVX NSCLC): 3.9 µM
- TGI (EKVX NSCLC): 12.6 µM and 19.3 µM
- GI50 (OVCAR-4 ovarian): 2.42 µM
- TGI (OVCAR-4 ovarian): 5.45 µM and 13.4 µM
- GI50 (SF-295 CNS): 2.56 µM and 3.56 µM
- TGI (SF-295 CNS): 8.38 µM and 15.3 µM
- GI50 (COLO 205 colon): 3.09 µM
- TGI (COLO 205 colon): 9.41 µM and 15 µM
- GI50 (K-562 leukemia): 1.21 µM
- TGI (K-562 leukemia): 3.67 µM and 3.79 µM
- GI50 (NCI-H23 lung): 2.99 µM
- TGI (NCI-H23 lung): 11.2 µM and 15 µM
- TGI (DMS 273 small cell lung): 5.75 µM
- GI50 (MALME-3M melanoma): 3.63 µM
- TGI (MALME-3M melanoma): 14.3 µM and 15.2 µM
- TGI (HOP-18 NSCLC): 18 µM
- GI50 (MOLT-4 leukemia): 0.91 µM and 0.471 µM
- TGI (MOLT-4 leukemia): 2.59 µM and 2.77 µM

Structure (SMILES): CC(=O)NC(CCCN(Cc1ccccc1)C(=O)N(C)N=O)C(=O)NCc1ccccc1 (stereo unspecified)
- TGI (EKVX NSCLC): > 100 µM
- TGI (OVCAR-4 ovarian): > 100 µM
- TGI (SF-295 CNS): > 100 µM
- TGI (COLO 205 colon): > 100 µM
- TGI (K-562 leukemia): > 100 µM
- TGI (NCI-H23 lung): > 100 µM
- TGI (DMS 273 small cell lung): > 100 µM
- TGI (MALME-3M melanoma): > 100 µM
- TGI (MOLT-4 leukemia): > 100 µM

Structure (SMILES): O=C1/C(=C\c2ccccc2)C2OCC=C3CN4CCC56c7ccccc7N1C5C2C3CC46 (stereo unspecified)
- GI50 (EKVX NSCLC): 70.5 µM
- TGI (EKVX NSCLC): > 100 µM
- GI50 (OVCAR-4 ovarian): > 100 µM
- TGI (OVCAR-4 ovarian): > 100 µM
- GI50 (SF-295 CNS): 3.69 µM
- TGI (SF-295 CNS): 24.7 µM
- GI50 (COLO 205 colon): 17.3 µM
- TGI (COLO 205 colon): > 100 µM
- GI50 (K-562 leukemia): 3.33 µM
- TGI (K-562 leukemia): > 100 µM
- GI50 (NCI-H23 lung): > 100 µM
- TGI (NCI-H23 lung): > 100 µM
- GI50 (MALME-3M melanoma): 4.67 µM
- TGI (MALME-3M melanoma): 17.9 µM
- GI50 (MOLT-4 leukemia): 7.23 µM
- TGI (MOLT-4 leukemia): > 100 µM

Structure (SMILES): CC(=O)c1c2c(cc3c1CC1(C3)Cc3cc4c(c(C(=O)O)c3C1)CCC4)CCC2 (stereo unspecified)
- TGI (OVCAR-4 ovarian): > 100 µM
- TGI (SF-295 CNS): > 100 µM
- TGI (COLO 205 colon): 68.1 µM
- TGI (K-562 leukemia): 97.8 µM
- TGI (NCI-H23 lung): 66.8 µM
- TGI (DMS 273 small cell lung): > 100 µM
- TGI (MALME-3M melanoma): > 100 µM
- TGI (HOP-18 NSCLC): > 100 µM
- TGI (MOLT-4 leukemia): 71.3 µM
